Values after ≈ are worked out from the molar mass of the structure shown. Like-named read-outs stand apart in the source and are kept apart here.
Tests used:
[1] = cited from earlier work
[2] = Thermogravimetric analysis (onset decomposition temperature); assay type: physicochemical
Source text: FIG. 6B illustrates thermogravimetric profiles of TOPO, LauA, and TOPO: LauA (1:1), according to some embodiments. Thermogravimetric analysis is another essential solvent characterization method and is vital for identifying the maximum operational temperature range of a solvent. The onset decomposition temperature (Tonset) marks the start of a noticeable weight loss, indicating initial thermal degradation. Table 3 lists the onset temperatures for TOPO: LauA (1:1), and its thermogravimetric profile is shown in FIG. 6B along with the profiles of pure TOPO and lauric acid for comparison. Hydrogen bonding plays an important role in DES stability by reducing molecular volatility and increasing the energy needed for decomposition. […] This intermediate Tonset reflects the delicate balance of H-bonding strength in the DES that is affected from both the stability of the individual components and the new interactions they form when combined.

[3] = cited from earlier work; remark: listed apart in the source
rat = settings: cited from earlier work
[4] = 25° C.; cited from earlier work

| Compound | serum elimination half-lives [1] [years] | Onset decomposition temperature (Tonset) [2] [°C] | water solubility [3] [µg/mL] | other results |
| --- | --- | --- | --- | --- |
| O=S(=O)(O)C(F)(F)C(F)(F)C(F)(F)C(F)(F)C(F)(F)C(F)(F)C(F)(F)C(F)(F)F [PFOS, perfluorooctane sulfonic acid] | 3.8 | – | – | – |
| CCCCCCCCP(=O)(CCCCCCCC)CCCCCCCC [TOPO, trioctylphosphine oxide] | – | 281 | 0.15 (≈ 0.388 µM) | LD50 (oral, rat) (rat; in vivo, po): 2,000 mg/kg |
| O=C(O)C(F)(F)C(F)(F)C(F)(F)C(F)(F)C(F)(F)C(F)(F)C(F)(F)F [PFOA, perfluorooctanoic acid] | 5.4 | – | – | – |
| Cc1ccc(C(C)C)c(O)c1 [thymol] | – | – | – | inherent density [4]: 0.967 g/mL |
| CCCCCCCCCCCC(=O)O [Lauric acid, lauric acid] | – | 207 | 0.4 (≈ 2 µM) | – |
| C[N+](C)(C)CCO.[Cl-] [choline chloride, reference compound] | – | – | – | LD50 (oral, rat) (rat; oral): 3,900 mg/kg |

— patent publication US20250340457A1, “SYSTEMS AND METHODS FOR EXTRACTION OF FLUORINATED HYDROCARBONS” (Khalifa University of Science and Technology, priority 2024, published 2025)
